Measured values: publication PMC7746742, “The novel rexinoid MSU-42011 is effective for the treatment of preclinical Kras-driven lung cancer” (Scientific Reports, 2020)
Like-named read-outs stand apart in the source and are kept apart here.

Legend:
[1] = system: SREBP; assay: SREBP mRNA expression assay in HepG2 cells (RT-PCR); format: cell-based, human; conditions: for Effect on the induction of SREBP mRNA by LG100268: combined with LG100268 300 nM, GSK 2033 500 nM; for Effect on the induction of SREBP mRNA by LG100268 / SREBP mRNA expression compared to the vehicle control: HX 531 100 nM; for SREBP mRNA expression compared to the vehicle control: LG100268 300 nM, T0901317 500 nM, alone or combined; for SREBP activation Fold induction vs. Control / fold induction at 0.3 µM: HepG2 cells, 300 nM rexinoids, 8 h, SREBP mRNA by RT-PCR, mean ± SD of 3 experiments; for fold induction at 0.3 µM: Homo sapiens, read-out: SREBP activation Fold induction vs. Control
Description: The goals of our structure–activity relationship (SAR) studies were to explore and discover new scaffolds that not only bind to RXR but also are able to independently modulate both iNOS and SREBP activity in accordance with a previously described screening paradigm. To characterize the effect of the novel rexinoids on SREBP elevation in vitro, HepG2 cells were treated with 300 nM rexinoids for 8 h and SREBP mRNA levels were measured by RT-PCR. SREBP expression ranged from no change to a 4.6-fold induction compared to the vehicle control when treated with the novel compounds. […] Analogs MSU- 41402, 41582, 41407, 41566, 41844, 41845, 42011, and 42166 induced an SREPB mRNA fold expression change of 1–1.5 normalized to a vehicle control, while bexarotene induced an mRNA fold expression change of > 2 (Table 1).
(§1) HepG2 were plated in 6-well plates (1 × 10^6 cells/well) and, after allowing the cells to attach overnight, were treated with 300 nM rexinoids and/or varying concentrations of T0901317 (TOCRIS # 2373), GSK 2033 (TOCRIS # 5694), HX 531 (TOCRIS # 3912) for 8 h. Total RNA was isolated with TRIzol (Invitrogen, Carlsbad, CA) and 2 µg RNA was used to synthesize cDNA using the SuperScript III reverse transcriptase kit (Invitrogen, Carlsbad, CA). Primers (IDT) for SREBP (F: 5′-GCCGGTTGATAGGCAGCTT-3′; R: 5′-GGTGAGTGGCGGAACCATT-3′) and GAPDH (F: 5′-[…]-3′; R: 5′-[…]-3′), the SYBR Green Supermix (Bio-rad Laboratories, Hercules, CA) and the QuantStudio 7 Flex Real-Time PCR system (95 °C for 20 s followed by 40 cycles of 95 °C for 15 s and 60 °C for 1 min were used to detect mRNA expression. Relative SREBP/GAPDH gene expression was calculated by the delta-delta Ct method. To evaluate protein expression by western blotting, HepG2 cells were plated as above and treated with 300 nM of rexinoids for 24 h. Cells were harvested and lysed in RIPA buffer (1 M Tris–Cl, 5 M NaCl, pH 7.4, 0.5 M EDTA, 25 mM sodium deoxycholate, 1% triton-X, 0.1% SDS, 0.0125% aprotinin) with protease inhibitors (1% PMSF/0.5% apoprotein/0.1%leupeptin). Protein concentration was measured using a BCA assay (Sigma-Aldrich). Proteins (10 µg/well) were separated in 10% SDS-PAGE gels and transferred to nitrocellulose membranes. Membranes were incubated with SREBP (Active Motif; 1:1000) and GAPDH (Santa Cruz Biotechnology; 1:8000) primary antibodies followed by anti-rabbit secondary antibodies conjugated to horseradish peroxidase (Cell Signaling). Signal was detected using the ECL Western Blotting Substrate (GE Healthcare), and protein levels quantified using ImageJ.

[2] = system: SREBP; assay: SREBP protein expression in HepG2 cells (western blot); format: cell-based, human; conditions: 300 nM rexinoids, 24 h
Description: Although we have confirmed that the iNOS assay correlates with in vivo efficacy, few investigators have used the induction of SREBP in vitro as a biomarker to predict the ability of novel rexinoids to increase triglycerides in vivo. Elevated triglycerides are a side-effect found with many RXR agonists in preclinical models and by bexarotene in humans[13],[14]. […] HepG2 human liver cells were used, as the liver is the major organ that regulates lipid homeostasis.
as §1

[3] = Plasma triglycerides in MMTV-neu mice fed rexinoids; format: in vivo; conditions: MMTV-neu mice fed rexinoids for 10 days, n=5-6 mice/group
Description: fold expression triglyceride
Supplemental Fig 1. Correlation of SREPB mRNA expression and triglyceride levels. HepG2 human liver cells were treated with 300 nM of rexinoids for 8 hr,and lysates analyzed by RT-PCR. Triglycerides in plasma from MMTV-neu mice fed rexinoids for10 days were measured using a commercial kit(Abcam). *, p <0.01 vs control; **, p<0.05 vs bex and LG268; n=5-6 mice/group.

[4] = system: A549 lung cancer cells; assay: MTT proliferation assay; format: cell-based, human; conditions: 0–1 μM rexinoids, 72 hr
Description: were treated with 0-1 μM rexinoids for 72 hr. Proliferation was measured using the MTT assay.
MTT Assay. A549 cells were plated in 96-well plates (2,000 cells/well). After overnight attachment, cells were treated with 2 fold dilutions (0-1000 nM rexinoids) for 72 hr. 50 μL 3-(4,5-dimethylthiazol-2-yl)-2,5-diphenyltetrazolium bromide (MTT; Sigma M2128) was added to each well, and cells were incubated at 37 °C for 4 hr. Media was removed and cells were lysed with developing solution (0.04 M HCl in isopropanol). Plates were read at 550 nm.
(also on this page, place not known: 110A549 Cell Proliferation (% DMSO Control) 37°C)

[5] = system: iNOS; assay: iNOS inhibition assay (LPS-induced NO production, Griess reaction); format: cell-based, murine; conditions: RAW264.7 cells, 0–1000 nM rexinoids, LPS 1 ng/ml 24 h, NO by Griess assay, mean ± SE of 3 experiments, read-out: iNOS suppression IC50
Description: To evaluate the anti-inflammatory effects of the novel rexinoids, we utilized the iNOS suppression assay. Inhibition of iNOS in vitro directly correlates with efficacy in our preclinical model of Kras-driven lung cancer. RAW264.7 macrophage-like cells were treated with 0–1 μM rexinoids and stimulated with 1 ng/mL lipopolysaccharide for 24 h, and then NO was measured in the media.
RAW264.7 cells were plated in 96-well plates (20,000 cells/well). After overnight attachment, cells were treated with twofold serial dilutions (0–1000 nM) of rexinoids. After a 20 min incubation at 37 °C, cells were stimulated with 1 ng/mL LPS for 24 h. NO production was measured in culture medium using the Griess reaction. IC50 values were calculated using GraphPad Prism 8.1.2 software for Windows using a log([nM drug concentration]) vs. response curve fit.

SMILES	fold induction at 0.3 µM ([1]; HepG2, 8 h)	IC50 ([5]; Mus musculus)	also measured
Cc1cc(C)c(S(=O)(=O)N(Cc2ccc(-c3cccc(S(C)(=O)=O)c3)cc2)Cc2ccc(C(F)(F)F)o2)c(C)c1 [GSK 2033]			SREBP mRNA expression lowered by ([1]; HepG2, 8 h, GSK 2033 500 nM alone): ~ 50%; Effect on the induction of SREBP mRNA by LG100268 ([1]; HepG2, 8 h): partially reversed the induction of SREBP by LG100268
CN1c2ccc([N+](=O)[O-])cc2N=C(c2ccc(C(=O)O)cc2)c2cc3c(cc21)C(C)(C)CCC3(C)C [HX 531]			SREBP mRNA expression compared to the vehicle control ([1]; HepG2, 8 h): did not alter SREBP mRNA expression; Effect on the induction of SREBP mRNA by LG100268 ([1]; HepG2, 8 h): reversed the induction of SREBP by LG100268
CC(/C=C/[C@@H]1C[C@]1(C)c1ccc2c(c1)C(C)(C)CCC2(C)C)=C\C(=O)O [IRX194204]			SREBP protein levels compared to DMSO control [2]: increased SREBP protein levels
Cc1cc2c(cc1C1(c3ccc(C(=O)O)cn3)CC1)C(C)(C)CCC2(C)C [LG100268]			Plasma triglyceride levels in mice [3]: 3.42 ± 0.4 nmol/µL; SREBP mRNA expression compared to the vehicle control ([1]; HepG2, 8 h): 2.5 fold; SREBP activation Fold induction vs. Control [1]: 3.06 ± 0.7 fold; SREBP protein levels compared to DMSO control [2]: increased SREBP protein levels; Growth / proliferation of A549 lung cancer cells [4]: do not inhibit proliferation; IC50 [5]: 0.083 ± 0.014 µM
C/C(=C/C=C/C(C)=C/C(=O)O)c1cc(C(C)(C)C)cc(C(C)(C)C)c1OCC(F)F [LG101506]			Plasma triglyceride levels in mice [3]: 1.21 ± 0.1 nmol/µL; SREBP activation Fold induction vs. Control [1]: 1.06 ± 0.3 fold; SREBP protein levels compared to DMSO control [2]: did not
CCN(c1ccc(C(=O)O)cc1)c1cc(C(C)(C)C)cc(C(C)(C)C)c1 [MSU-41402]	1.37 ± 0.3	0.343 ± 0.062 µM	
C=C(c1ccc(C(=O)O)cc1)c1cc(C(C)(C)C)ccc1OCC [MSU-41403]	2.68 ± 0.2	0.331 ± 0.045 µM	
C=C(c1ccc(C(=O)O)cc1)c1cc2c(cc1C)CCCC2(C)C [MSU-41404]	3.07 ± 0.5	0.34 ± 0.025 µM	
C=C(c1ccc(C(=O)O)cc1)c1ccc(OCC(C)C)c(C(C)C)c1 [MSU-41405]	1.87 ± 0.3	0.267 ± 0.032 µM	
C=C(c1ccc(C(=O)O)cc1)c1cc(C(C)C)c(OCC(C)C)cc1C [MSU-41406]	1.67 ± 0.2	0.252 ± 0.055 µM	
C=C(c1ccc(C(=O)O)cc1)c1cc(C(C)C)c(OC(C)C)cc1C [MSU-41407]	1.08 ± 0.1	0.334 ± 0.017 µM	
C=C(c1ccc(C(=O)O)cc1)c1cc(C(C)C)c(OCC)cc1C [MSU-41408]	2.55 ± 0.7	0.3 ± 0.079 µM	
CCN(c1cc(C(C)(C)C)cc(C(C)(C)C)c1)c1ccc(C(=O)O)cn1 [MSU-41564]	2.62 ± 0.7	0.248 ± 0.06 µM	
CCOc1c(N(CC)c2ccc(C(=O)O)cc2)cc(C(C)(C)C)cc1C(C)(C)C [MSU-41565]	1.59 ± 0.2	0.366 ± 0.049 µM	
C=C(c1ccc(C(=O)O)cc1)c1cc(C(C)(C)C)cc(C(C)(C)C)c1 [MSU-41566]	1.12 ± 0.5	0.239 ± 0.053 µM	
CC(C)(C)c1cc(-n2c(C(F)(F)F)nc3cc(C(=O)O)ccc32)cc(C(C)(C)C)c1 [MSU-41567]	1.58 ± 0.2	0.271 ± 0.092 µM	
CCN(c1cc(C(C)(C)C)cc(C(C)(C)C)c1)c1ncc(C(=O)O)cn1 [MSU-41582]	1.38 ± 0.4	0.295 ± 0.054 µM	
CCN(c1ccc(C(=O)O)cn1)c1cc(C(C)(C)C)ccc1C [MSU-41583]	1.59 ± 0.5	0.29 ± 0.061 µM	
CC(C)(C)c1cc(N(CC2CC2)c2ccc(C(=O)O)cn2)cc(C(C)(C)C)c1 [MSU-41843]	2.48 ± 1.8	0.274 ± 0.033 µM	
CCN(c1cc(C(F)(F)F)cc(C(F)(F)F)c1)c1ccc(C(=O)O)cn1 [MSU-41844]	0.96 ± 0.5	0.389 ± 0.053 µM	
CCN(c1ccc(C(=O)O)cc1)c1cc(C(C)C)c(OCC(C)C)cc1C [MSU-41845]	1.45 ± 0.2	0.338 ± 0.031 µM	
CCN(c1ccc(C(=O)O)cc1)c1cc(C(C)(C)C)c(OC)c(C(C)(C)C)c1 [MSU-41846]	1.63 ± 0.3	0.347 ± 0.031 µM	
O=S(=O)(c1ccccc1)N(CC(F)(F)F)c1ccc(C(O)(C(F)(F)F)C(F)(F)F)cc1 [T0901317]			SREBP mRNA expression compared to the vehicle control ([1]; HepG2, 8 h): 2.5 fold
